Source: ChEMBL document CHEMBL1949618, “Synthesis and properties of mRNA cap analogs containing imidodiphosphate moiety--fairly mimicking natural cap structure, yet resistant to enzymatic hydrolysis” (Bioorg Med Chem, 2012)
Values belong to the compound of their own block, whether it stands above or below them. Calls of active or inactive are those of the source. No cut-off for these calls is given here.

Assays:
[1] = molecular target: Eukaryotic translation initiation factor 4E (Oryctolagus cuniculus) (UniProt P29338); experiment: Inhibition of eIF4E-mediated mRNA translation in rabbit reticulocyte lysate assessed as translation efficiency after 60 mins by luciferase reporter gene assay relative to m7GpppG-capped mRNA
Sequence of Eukaryotic translation initiation factor 4E (Oryctolagus cuniculus) (P29338 whole entry): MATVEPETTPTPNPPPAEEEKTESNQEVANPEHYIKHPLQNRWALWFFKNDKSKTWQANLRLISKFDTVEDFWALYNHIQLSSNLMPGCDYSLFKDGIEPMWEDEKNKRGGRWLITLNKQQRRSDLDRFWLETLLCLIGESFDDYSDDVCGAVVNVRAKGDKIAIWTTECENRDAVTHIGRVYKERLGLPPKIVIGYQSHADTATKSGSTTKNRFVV

[2] = Stability of the compound assessed as human recombinant DcpS -mediated hydrolysis after 2 hrs by HPLC; format: ADME
[3] = molecular target: T1, Eukaryotic translation initiation factor 4E (Oryctolagus cuniculus, UniProt P29338); experiment: Inhibition of eIF4E-mediated mRNA translation in rabbit reticulocyte lysate pre-incubated for 60 mins prior to mRNA addition by luciferase reporter gene assay
T1 sequence (P29338 whole entry): as above

[4] = molecular target: T1, Eukaryotic translation initiation factor 4E; experiment: Inhibition of eIF4E-mediated mRNA translation in rabbit reticulocyte lysate by luciferase reporter gene assay
[5] = molecular target: Eukaryotic translation initiation factor 4E (Homo sapiens) (UniProt P06730); experiment: Binding affinity to recombinant eIF4E by fluorescence quenching titration method
Sequence of Eukaryotic translation initiation factor 4E (Homo sapiens) (P06730 whole entry): as the sequence (P29338 whole entry) above, with P16T, A17T, D174E counted along it

[6] = Chemical stability of the compound in aqueous buffer at pH 8 assessed as decomposition at 5 mM after 24 hrs by RP-HPLC; format: physicochemical; settings: read-out: Drug degradation
[7] = Chemical stability of the compound in aqueous buffer at pH 6 assessed as decomposition at 5 mM after 24 hrs by RP-HPLC; format: physicochemical; settings: read-out: Drug degradation
[8] = Chemical stability of the compound in aqueous buffer at pH 8 assessed as decomposition at 5 mM up to 2 hrs by RP-HPLC; format: physicochemical; settings: pH 8, 2 h, 5000 µM
[9] = Chemical stability of the compound in aqueous buffer at pH 2 assessed as decomposition at 5 mM up to 2 hrs by RP-HPLC; format: physicochemical; settings: pH 2, 2 h, 5000 µM
[10] = Chemical stability of the compound in aqueous buffer at pH 6 assessed as decomposition at 5 mM up to 2 hrs by RP-HPLC; format: physicochemical; settings: pH 6, 2 h, 5000 µM
[11] = Stability of the compound at -20 degreeC after 12 months; format: physicochemical; settings: 8766 h
[12] = Chemical stability of the compound in aqueous buffer at pH 2 assessed as decomposition at 5 mM after 24 hrs by RP-HPLC; format: physicochemical; settings: read-out: Drug degradation
Homo sapiens = organism: Homo sapiens; experiment: Selectivity ratio of Ka for human recombinant DcpS to Ka for eIF4E
[13] = molecular target: T2, m7GpppX diphosphatase (Homo sapiens) (UniProt Q96C86)
T2 sequence (whole entry): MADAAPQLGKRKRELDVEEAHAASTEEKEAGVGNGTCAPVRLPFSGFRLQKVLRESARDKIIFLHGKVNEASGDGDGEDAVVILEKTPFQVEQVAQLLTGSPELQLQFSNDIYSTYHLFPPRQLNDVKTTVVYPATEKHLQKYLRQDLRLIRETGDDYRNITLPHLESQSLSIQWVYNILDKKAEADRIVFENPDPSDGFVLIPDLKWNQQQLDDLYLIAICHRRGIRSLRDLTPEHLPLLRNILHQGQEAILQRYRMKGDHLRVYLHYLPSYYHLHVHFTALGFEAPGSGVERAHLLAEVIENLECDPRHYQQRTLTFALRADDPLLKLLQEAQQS
Description: Binding affinity to human recombinant DcpS by fluorescence quenching titration method

Nucleic Acid = experiment: Capping efficiency in mRNA after 60 mins by gel electrophoresis in the presence of SP6 polymerase; format: nucleic-acid assay

fold change (FC) [1]: 1.47
Structure (SMILES): CO[C@H]1[C@@H](O)[C@H](n2c[n+](C)c3c(O)nc(N)nc32)O[C@@H]1COP(=O)(O)OP(=O)([O-])OP(=O)(O)OC[C@H]1O[C@@H](n2cnc3c(=O)[nH]c(N)nc32)[C@H](O)[C@@H]1O

fold change (FC) [1]: 0.18
Structure (SMILES): Nc1nc2c(ncn2[C@@H]2O[C@H](COP(=O)(O)OP(=O)(O)OP(=O)(O)OC[C@H]3O[C@@H](n4cnc5c(N)ncnc54)[C@H](O)[C@@H]3O)[C@@H](O)[C@H]2O)c(=O)[nH]1

Drug degradation [2]: Active
IC50 [3]: > 20 µM
IC50 [4]: 5 µM
Structure (SMILES): C[n+]1cn([C@@H]2O[C@H](COP(=O)(O)OP(=O)(O)OP(=O)(O)OP(=O)(O)OC[C@H]3O[C@@H](n4cnc5c(=O)[nH]c(N)nc54)[C@H](O)[C@@H]3O)[C@@H](O)[C@H]2O)c2nc(N)[n-]c(=O)c21

Ka [5]: 141 µM⁻¹
Drug degradation [2]: Active
IC50 [3]: 16 µM
IC50 [4]: 3.52 µM
degraded at 24 h, 5000 µM [6]: < 10%
degraded at 24 h, 5000 µM [7]: < 10%
Drug degradation [8]: Not Active
Drug degradation [9]: Not Active
Drug degradation [10]: Not Active
Stability [11]: Stable
degraded at 24 h, 5000 µM [12]: < 10%
Structure (SMILES): C[n+]1cn([C@@H]2O[C@H](COP(=O)([O-])OP(=O)(O)OP(=O)(O)NP(=O)(O)OC[C@H]3O[C@@H](n4cnc5c(=O)[nH]c(N)nc54)[C@H](O)[C@@H]3O)[C@@H](O)[C@H]2O)c2nc(N)[nH]c(=O)c21.N.N.N

Ka [5]: 6.3 µM⁻¹
Ratio (Homo sapiens): 37.1
Structure (SMILES): C[n+]1cn([C@@H]2O[C@H](COP(=O)(O)CP(=O)(O)OP(=O)([O-])OC[C@H]3O[C@@H](n4cnc5c(=O)[nH]c(N)nc54)[C@H](O)[C@@H]3O)[C@@H](O)[C@H]2O)c2nc(N)nc(O)c21

Ka [13]: 33.6 µM⁻¹
Ka [5]: 18.5 µM⁻¹
Drug degradation [2]: Not Active
Ratio (Homo sapiens): 1.8
degraded at 24 h, 5000 µM [6]: < 10%
degraded at 24 h, 5000 µM [7]: < 10%
fold change (FC) [1]: 1.13
Drug degradation [8]: Not Active
Drug degradation [9]: Not Active
Drug degradation [10]: Not Active
Stability [11]: Stable
Activity (Nucleic Acid): Active
degraded at 24 h, 5000 µM [12]: < 10%
Structure (SMILES): CO[C@@H]1[C@H](O)[C@@H](COP(=O)([O-])NP(=O)([O-])OP(=O)([O-])OC[C@H]2O[C@@H](n3cnc4c(=O)[nH]c(N)nc43)[C@H](O)[C@@H]2O)O[C@H]1n1c[n+](C)c2c(=O)[nH]c(N)nc21.[Na+].[Na+]

IC50 [3]: > 20 µM
Structure (SMILES): C[n+]1cn([C@@H]2O[C@H](COP(=O)(O)OP(=O)([O-])OP(=O)(O)OC[C@H]3O[C@@H](n4cnc5c(=O)[nH]c(N)nc54)[C@H](O)[C@@H]3O)[C@@H](O)[C@H]2O)c2nc(N)[nH]c(=O)c21

fold change (FC) [1]: 1.25
Structure (SMILES): CO[C@@H]1[C@H](O)[C@@H](COP(=O)([O-])OP(=O)(O)CP(=O)(O)OC[C@H]2O[C@@H](n3cnc4c(=O)[nH]c(N)nc43)[C@H](O)[C@@H]2O)O[C@H]1n1c[n+](C)c2c(O)nc(N)nc21

Ka [13]: 47.4 µM⁻¹
Ka [5]: 125 µM⁻¹
Drug degradation [2]: Not Active
Ratio (Homo sapiens): 0.38
degraded at 24 h, 5000 µM [6]: < 10%
degraded at 24 h, 5000 µM [7]: < 10%
fold change (FC) [1]: 0.73
Drug degradation [8]: Not Active
Drug degradation [9]: Not Active
Drug degradation [10]: Not Active
Stability [11]: Stable
Activity (Nucleic Acid): Active
degraded at 24 h, 5000 µM [12]: < 10%
Structure (SMILES): CO[C@@H]1[C@H](O)[C@@H](COP(=O)([O-])NP(=O)(O)OP(=O)(O)OP(=O)(O)OC[C@H]2O[C@@H](n3cnc4c(=O)[nH]c(N)nc43)[C@H](O)[C@@H]2O)O[C@H]1n1c[n+](C)c2c(=O)[nH]c(N)nc21.N.N.N

Ka [13]: 218 µM⁻¹
Ka [5]: 14.6 µM⁻¹
Drug degradation [2]: Not Active
IC50 [3]: 3.74 µM
Ratio (Homo sapiens): 15
IC50 [4]: 3.97 µM
degraded at 24 h, 5000 µM [6]: < 10%
degraded at 24 h, 5000 µM [7]: < 10%
Drug degradation [8]: Not Active
Drug degradation [9]: Not Active
Drug degradation [10]: Not Active
Stability [11]: Stable
degraded at 24 h, 5000 µM [12]: < 10%
Structure (SMILES): C[n+]1cn([C@@H]2O[C@H](COP(=O)([O-])NP(=O)(O)OP(=O)(O)OC[C@H]3O[C@@H](n4cnc5c(=O)[nH]c(N)nc54)[C@H](O)[C@@H]3O)[C@@H](O)[C@H]2O)c2nc(N)[nH]c(=O)c21.N.N

Ka [5]: 51.8 µM⁻¹
Ratio (Homo sapiens): 3.1
Structure (SMILES): C[n+]1cn([C@@H]2O[C@H](COP(=O)(O)CP(=O)(O)OP(=O)([O-])OP(=O)(O)OC[C@H]3O[C@@H](n4cnc5c(=O)[nH]c(N)nc54)[C@H](O)[C@@H]3O)[C@@H](O)[C@H]2O)c2nc(N)nc(O)c21

Ka [13]: 146 µM⁻¹
Structure (SMILES): C[n+]1cn([C@@H]2O[C@H](COP(=O)(S)OP(=O)(O)OP(=O)([O-])OC[C@H]3O[C@@H](n4cnc5c(=O)[nH]c(N)nc54)[C@H](O)[C@@H]3O)[C@@H](O)[C@H]2O)c2nc(N)[nH]c(=O)c21 (some centres not stated)

Ka [5]: 99.8 µM⁻¹
Drug degradation [2]: Active
fold change (FC) [1]: 1.56
Structure (SMILES): CO[C@@H]1[C@H](O)[C@@H](COP(=O)(O)OP(=O)([O-])OP(=O)(O)OP(=O)(O)OC[C@H]2O[C@@H](n3cnc4c(=O)[nH]c(N)nc43)[C@H](O)[C@@H]2O)O[C@H]1n1c[n+](C)c2c(O)nc(N)nc21

Ka [5]: 12.5 µM⁻¹
Ratio (Homo sapiens): > 1
fold change (FC) [1]: 1
Structure (SMILES): C[n+]1cn([C@@H]2O[C@H](COP(=O)(O)OP(=O)([O-])OP(=O)(O)OC[C@H]3O[C@@H](n4cnc5c(=O)[nH]c(N)nc54)[C@H](O)[C@@H]3O)[C@@H](O)[C@H]2O)c2nc(N)nc(O)c21

fold change (FC) [1]: 1.1
Structure (SMILES): CO[C@@H]1[C@H](O)[C@@H](COP(=O)(O)CP(=O)(O)OP(=O)([O-])OC[C@H]2O[C@@H](n3cnc4c(=O)[nH]c(N)nc43)[C@H](O)[C@@H]2O)O[C@H]1n1c[n+](C)c2c(O)nc(N)nc21

Ka [5]: 111 µM⁻¹
Structure (SMILES): C[n+]1cn([C@@H]2O[C@H](COP(=O)(O)OP(=O)(O)OP(=O)([O-])OP(=O)(O)OC[C@H]3O[C@@H](n4cnc5c(=O)[nH]c(N)nc54)[C@H](O)[C@@H]3O)[C@@H](O)[C@H]2O)c2nc(N)nc(O)c21

fold change (FC) [1]: 1.56
Structure (SMILES): CO[C@@H]1[C@H](O)[C@@H](COP(=O)(O)OP(=O)([O-])OP(=O)(O)CP(=O)(O)OC[C@H]2O[C@@H](n3cnc4c(=O)[nH]c(N)nc43)[C@H](O)[C@@H]2O)O[C@H]1n1c[n+](C)c2c(O)nc(N)nc21

Ka [5]: 132 µM⁻¹
Drug degradation [2]: Active
degraded at 24 h, 5000 µM [6]: < 10%
degraded at 24 h, 5000 µM [7]: < 10%
fold change (FC) [1]: 1.01
Drug degradation [8]: Not Active
Drug degradation [9]: Not Active
Drug degradation [10]: Not Active
Stability [11]: Stable
Activity (Nucleic Acid): Active
degraded at 24 h, 5000 µM [12]: < 10%
Structure (SMILES): CO[C@@H]1[C@H](O)[C@@H](COP(=O)([O-])OP(=O)([O-])OP(=O)([O-])NP(=O)([O-])OC[C@H]2O[C@@H](n3cnc4c(=O)[nH]c(N)nc43)[C@H](O)[C@@H]2O)O[C@H]1n1c[n+](C)c2c(=O)[nH]c(N)nc21.[Na+].[Na+].[Na+]

Ka [5]: 10.8 µM⁻¹
Structure (SMILES): CO[C@@H]1[C@H](O)[C@@H](COP(=O)(O)OP(=O)([O-])OP(=O)(O)OC[C@H]2O[C@@H](n3cnc4c(=O)[nH]c(N)nc43)[C@H](O)[C@@H]2O)O[C@H]1n1c[n+](C)c2c(O)nc(N)nc21

fold change (FC) [1]: 1.5
Structure (SMILES): CO[C@@H]1[C@H](O)[C@@H](COP(=O)(O)CP(=O)(O)OP(=O)([O-])OP(=O)(O)OC[C@H]2O[C@@H](n3cnc4c(=O)[nH]c(N)nc43)[C@H](O)[C@@H]2O)O[C@H]1n1c[n+](C)c2c(O)nc(N)nc21

Ka [13]: 155 µM⁻¹
Ka [5]: 112 µM⁻¹
Drug degradation [2]: Not Active
IC50 [3]: 3.58 µM
Ratio (Homo sapiens): 1.4
IC50 [4]: 2.62 µM
degraded at 24 h, 5000 µM [6]: < 10%
degraded at 24 h, 5000 µM [7]: < 10%
Drug degradation [8]: Not Active
Drug degradation [9]: Not Active
Drug degradation [10]: Not Active
Stability [11]: Stable
degraded at 24 h, 5000 µM [12]: < 10%
Structure (SMILES): C[n+]1cn([C@@H]2O[C@H](COP(=O)([O-])NP(=O)([O-])OP(=O)([O-])OP(=O)([O-])OC[C@H]3O[C@@H](n4cnc5c(=O)[nH]c(N)nc54)[C@H](O)[C@@H]3O)[C@@H](O)[C@H]2O)c2nc(N)[nH]c(=O)c21.[Na+].[Na+].[Na+]
